Assay results as given in patent US8664405B2, “Sulfonic acid salt compound of 4-carbamoyl-5-hydroxy-imidazole derivative” (Fujifilm Corporation, priority 2007, dated 2014).

Key:
[1] = Evaluation of the storage stability in an aqueous solution (UV-Vis spectra); format: physicochemical; settings: dilute aqueous solution, room temperature, after 60 days
Description: (Evaluation 2) Evaluation of the Storage Stability in an Aqueous Solution
SM-108 obtained in Example 1 and hydrochloric acid salt of SM-108 obtained in Example 3 were dissolved into water to dilute aqueous solutions. UV-Vis spectra of those solutions were recorded just after making solutions and after leaving at room temperature for 60 days.

[2] = Evaluation of the storage stability in crystalline state by visual observation; format: physicochemical; settings: autoclave at 120° C. under a saturated vapor of water for 30 minutes
Description: (Evaluation 1) Evaluation of the Storage Stability in Crystalline State by Visual Observation
SM-108 [2] obtained in Example 1 and benzensulfonic acid salt of SM-108 [5] obtained in Example 2 were placed in an autoclave at 120° C. under a saturated vapor of water for 30 minutes.

[3] = Storage stability (general statements); format: physicochemical; settings: solid; no test conditions given
[4] = clinical trial by Sumitomo Pharmaceuticals in 1980s; cited from earlier work

SMILES | change of UV-Vis absorption spectrum of aqueous solution [1] | colour of aqueous solution [1] | colour of the crystalline substance after treatment (visual observation) [2] | storage stability [3] | clinical effect against MDS and CML [4]
Cl.NC(=O)c1nc[nH]c1O [hydrochloric acid salt of SM-108] | did not change at all | remained colorless |  |  | 
NC(=O)c1nc[nH]c1O.O=S(=O)(O)c1ccccc1 [benzensulfonic acid salt of SM-108 [5], benzenesulfonic acid salt of SM-108] |  |  | remained colorless |  | 
NC(=O)c1nc[nH]c1O [SM-108, 4-Carbamoyl-5-hydroxyimidazole] | a broad absorption appeared in the visible-light region |  | turned indigo-blue | poor storage stability | excellent effects
